In this test the target is human 5-HT2C receptor (Homo sapiens, UniProt P28335, I156V/I160V/N158S). In words: cell-based.
Chain of human 5-HT2C receptor (P28335 33-458 I156V/N158S/I160V limits assumed): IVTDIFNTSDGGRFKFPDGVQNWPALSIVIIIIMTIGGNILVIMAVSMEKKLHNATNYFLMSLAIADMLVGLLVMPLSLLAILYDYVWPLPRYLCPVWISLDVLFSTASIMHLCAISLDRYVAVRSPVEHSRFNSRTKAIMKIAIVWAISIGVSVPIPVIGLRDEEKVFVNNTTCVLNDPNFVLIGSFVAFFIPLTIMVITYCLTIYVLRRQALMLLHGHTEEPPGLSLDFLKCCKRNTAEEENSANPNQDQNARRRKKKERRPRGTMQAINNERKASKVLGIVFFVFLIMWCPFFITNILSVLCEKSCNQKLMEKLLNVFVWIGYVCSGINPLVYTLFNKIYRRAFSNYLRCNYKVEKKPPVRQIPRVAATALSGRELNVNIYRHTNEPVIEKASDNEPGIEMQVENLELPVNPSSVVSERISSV
The term EC50 denotes the concentration needed to bring the measured effect to its halfway point. Low readings indicate higher potency in that assay, high ones lower potency in that assay. As to `Clc1ccc(OC2CN(c3c4c(nc5ccnn35)CCNCC4)C2)cc1` [Example 35, 10-[3-(4-Chloro-phenoxy)-azetidin-1-yl]-6,7,8,9-tetrahydro-5H-1,4,7,10a-tetraaza-cyclohepta[f]indene], it took 141 nM to reach a half-maximal effect (EC50).

The molecule `CC(C)(C)N1CCC2(CCN(C(=O)C3CN(c4c5c(nc6ccnn46)CCNCC5)C3)CC2)C1=O` [Example 31.150] showed an EC50 of 240 nM. The molecule `COc1ccccc1CN(C)C(=O)C1CN(c2c3c(nc4ccnn24)CCNCC3)C1` [Example 31.51] returned an EC50 of 85 nM. `Fc1cc(F)c2nc(C3CN(c4c5c(nc6ccnn46)CCNCC5)C3)[nH]c2c1` [Example 34.24]: the EC50 was found to be 136 nM. With `COC[C@@H]1CCN1c1c2c(nc3ccnn13)CCNCC2` [Example 8, (S)-10-(2-Methoxymethyl-azetidin-1-yl)-6,7,8,9-tetrahydro-5H-1,4,7,10a-tetraaza-cyclohepta[f]indene], the midpoint of the response, the EC50, lay at 272 nM. On to `O=C(NC1(c2ccc(F)cc2)CC1)C1CN(c2c3c(nc4ccnn24)CCNCC3)C1` [Example 31.93], for which the midpoint of the response, the EC50, lay at 786 nM.

With `c1cc2nc3c(c(N4CCC4)n2n1)CCNCC3` [Example 7.4], the EC50 was 5 nM. In turn, `O=C(C1CN(c2c3c(nc4ccnn24)CCNCC3)C1)N1CCCCCC1` [Example 31.142] yielded an EC50 of 186 nM. To `O=C(N[C@H]1C[C@@H]1c1ccccc1)C1CN(c2c3c(nc4ccnn24)CCNCC3)C1` [Example 31.28] belongs 314 nM; to `c1ccc(CC2CN(c3c4c(nc5ccnn35)CCNCC4)C2)cc1` [Example 1.15], 10 nM. `COc1ccc2c(c1)CCN2C(=O)C1CN(c2c3c(nc4ccnn24)CCNCC3)C1` [Example 31.218] came in with an EC50 of 40 nM.

`CN(Cc1ccc(OC(F)F)cc1)C(=O)C1CN(c2c3c(nc4ccnn24)CCNCC3)C1` [Example 31.161]: a half-maximal response (EC50) required 15 nM. Turning to `Clc1ccncc1OC1CN(c2c3c(nc4ccnn24)CCNCC3)C1` [Example 35.35], the EC50 was 67 nM. As for `CN1CCc2nc3ccnn3c(N3CC(C(=O)NC4CC(C)(C)N(C)C(C)(C)C4)C3)c2CC1` [Example 36.25], the EC50 turned out to be 202 nM. The molecule `O=C(C1CN(c2c3c(nc4ccnn24)CCNCC3)C1)N1C2CCCCC1CCC2` [Example 31.158] came in with an EC50 of 1230 nM. In turn, `CN(Cc1cccs1)C(=O)C1CN(c2c3c(nc4ccnn24)CCNCC3)C1` [Example 31.43] had an EC50 of 35 nM.

In turn, `Fc1ccc(C(F)(F)F)cc1OC1CN(c2c3c(nc4ccnn24)CCNCC3)C1` [Example 35.36] displayed an EC50 of 90 nM. The molecule `C#CCNC(=O)C1CN(c2c3c(nc4ccnn24)CCNCC3)C1` [Example 37.85] came in with an EC50 of 94 nM. In the case of `c1cc2nc3c(c(N4CC(OCC5CCCCC5)C4)n2n1)CCNCC3` [Example 20.4], the half-maximal effective concentration (EC50) is 543 nM. With `Fc1ccc2[nH]c(C3CN(c4c5c(nc6ccnn46)CCNCC5)C3)nc2c1` [Example 34.14], the EC50 worked out at 369 nM. `CCOc1ccccc1OC1CN(c2c3c(nc4ccnn24)CCNCC3)C1` [Example 35.37]: the response was half-maximal at 47 nM (EC50). As for `CN(Cc1ccc(C#N)cc1)C(=O)C1CN(c2c3c(nc4c(Br)cnn24)CCNCC3)C1` [Example 31.139], the EC50 came out at 16 nM. For `CCN1CCCC1CNC(=O)C1CN(c2c3c(nc4ccnn24)CCNCC3)C1` (stereo not shown) [Example 37.90], a half-maximal response (EC50) required 12 nM. To `O=C(C1CN(c2c3c(nc4ccnn24)CCNCC3)C1)N1CCNCC1` [Example 37.44] belongs 2 nM; to `CN1CCc2nc3ccnn3c(N3CC(C(=O)N4CCC(C(F)(F)F)C4)C3)c2CC1` (stereo not shown) [Example 36.27], 89 nM; to `CCn1c(C2CN(c3c4c(nc5ccnn35)CCNCC4)C2)nc2ccccc21` [Example 34.2], 150 nM.

Consider `O=C(C1CN(c2c3c(nc4ccnn24)CCNCC3)C1)N1Cc2ccccc2C1` [Example 31.44], for which the EC50 was 113 nM. To `CN1CCc2nc3ccnn3c(N3CC(C(=O)N4CCC(N5CCCC5)CC4)C3)c2CC1` [Example 36.8] belongs 38 nM; to `COc1cccc(COC2CN(c3c4c(nc5ccnn35)CCNCC4)C2)c1` [Example 20.13], 347 nM; to `O=C(C1CN(c2c3c(nc4ccnn24)CCNCC3)C1)N1CCc2c(cccc2C(F)(F)F)C1` [Example 31.102], 36 nM.

The molecule `O=C(C1CN(c2c3c(nc4ccnn24)CCNCC3)C1)N1CCC2(CCC2)C1` [Example 31.56] displayed an EC50 of 43 nM. `O=C(NCC1CCCCCC1)C1CN(c2c3c(nc4ccnn24)CCNCC3)C1` [Example 37.68] yielded an EC50 of 39 nM. To `O=C(C1CN(c2c3c(nc4ccnn24)CCNCC3)C1)N1CCC2(CC1)Oc1ccccc1O2` [Example 31.186] belongs 68 nM. Molecule `O=C(NCc1ccc(OC(F)F)cc1)C1CN(c2c3c(nc4ccnn24)CCNCC3)C1` [Example 37.97] yielded an EC50 of 8 nM.

`CN1CCc2nc3ccnn3c(N3CC(C(=O)NCCC4CCCC4)C3)c2CC1` [Example 36.46] returned an EC50 of 143 nM. Molecule `Cc1cnn2c(N3CCC3)c3c(nc12)CCNCC3` [Example 27, 10-Azetidin-1-yl-3-methyl-6,7,8,9-tetrahydro-5H-1,4,7,10a-tetraaza-cyclohepta[f]indene] yielded an EC50 of 49 nM. Molecule `c1ccc2oc(C3CN(c4c5c(nc6ccnn46)CCNCC5)C3)nc2c1` [Example 14, 10-(3-Benzooxazol-2-yl-azetidin-1-yl)-6,7,8,9-tetrahydro-5H-1,4,7,10a-tetraaza-cyclohepta[f]indene] returned an EC50 of 678 nM. Consider `Cc1cccnc1CN(C)C(=O)C1CN(c2c3c(nc4ccnn24)CCNCC3)C1` [Example 31.196], for which the EC50 stood at 195 nM. Molecule `CC1CCN(C(=O)C2CN(c3c4c(nc5ccnn35)CCNCC4)C2)C1` (stereo not shown) [Example 31.124] yielded an EC50 of 94 nM. In turn, `O=C(C1CN(c2c3c(nc4ccnn24)CCNCC3)C1)N1CCC(F)(F)C1` [Example 31.148] showed an EC50 of 19 nM. In turn, `CN(Cc1ccc(-c2ccccc2)cc1)C(=O)C1CN(c2c3c(nc4ccnn24)CCNCC3)C1` [Example 31.82] displayed an EC50 of 154 nM. `COc1cc(Cl)ccc1OCC1CN(c2c3c(nc4ccnn24)CCNCC3)C1` [Example 15.26] gave an EC50 of 163 nM. The molecule `COC[C@H]1CCN1c1c2c(nc3ccnn13)CCNCC2` [Example 8.1] registered an EC50 of 75 nM. With `CC(C)(O)[C@@H]1CCCN1C(=O)C1CN(c2c3c(nc4ccnn24)CCNCC3)C1` [Example 31.194], the EC50 was 2560 nM. In turn, `CC(=O)NC1CCN(C(=O)C2CN(c3c4c(nc5ccnn35)CCN(C)CC4)C2)CC1` [Example 36.28] registered an EC50 of 380 nM. The same measure for `c1ccc2cc(OC3CN(c4c5c(nc6ccnn46)CCNCC5)C3)ccc2c1` [Example 35.46]: 495 nM; for `CC1CC(C)CC(N(C)C(=O)C2CN(c3c4c(nc5ccnn35)CCNCC4)C2)C1` (stereo not shown) [Example 31.216]: 847 nM. `O=C(C1CN(c2c3c(nc4ccnn24)CCNCC3)C1)N1CCc2cc(Cl)ccc21` [Example 31.147] displayed an EC50 of 78 nM. For `CC(C)C1CCN(C(=O)C2CN(c3c4c(nc5ccnn35)CCNCC4)C2)CC1` [Example 31.85], the EC50 came to 23 nM. Consider `CN(C)C(=O)[C@@H]1CCN(c2c3c(nc4ccnn24)CCNCC3)C1` [Example 1.62], for which a half-maximal effect (EC50) was put at 2070 nM. In turn, `CC(C)c1ccc(CN(C)C(=O)C2CN(c3c4c(nc5ccnn35)CCNCC4)C2)cc1` [Example 31.163] showed a 50% effective concentration (EC50) of 108 nM. The molecule `CN1CCc2nc3ccnn3c(N3CC(C(=O)N4CCN(C(=O)C5CCCCC5)CC4)C3)c2CC1` [Example 36.22] returned an EC50 of 181 nM. Consider `Cn1c(C2CN(c3c4c(nc5ccnn35)CCNCC4)C2)nc2cc(Cl)ccc21` [Example 34.3], for which the EC50 stood at 418 nM. `Clc1ccccc1OC1CN(c2c3c(nc4ccnn24)CCNCC3)C1` [Example 35.3]: the EC50 turned out to be 98 nM.

In the case of `c1cc2nc3c(c(C4CCC4)n2n1)CCNCC3` [Example 23, 10-Cyclobutyl-6,7,8,9-tetrahydro-5H-1,4,7,10a-tetraaza-cyclohepta[f]indene], it took 114 nM to reach a half-maximal effect (EC50).

Turning to `CC(C)CC(C)NC(=O)C1CN(c2c3c(nc4ccnn24)CCNCC3)C1` (stereo not shown) [Example 37.99], the EC50 was 92 nM.

`CN(Cc1ccccc1Cl)C(=O)C1CN(c2c3c(nc4ccnn24)CCNCC3)C1` [Example 31.37] had a concentration for a half-maximal effect (EC50) of 68 nM. To `O=C(C1CN(c2c3c(nc4ccnn24)CCNCC3)C1)N1CCCC2(CCCc3ccccc32)C1` (stereo not shown) [Example 31.172] belongs 765 nM.

`COc1ccc(CCN(C)C(=O)C2CN(c3c4c(nc5ccnn35)CCNCC4)C2)cc1` [Example 31.27]: it took 274 nM to reach a half-maximal effect (EC50). With `CCC1CCN(C(=O)C2CN(c3c4c(nc5ccnn35)CCNCC4)C2)CC1` [Example 31.68], a half-maximal effect (EC50) was put at 46 nM. The molecule `Clc1cccnc1OC1CN(c2c3c(nc4ccnn24)CCNCC3)C1` [Example 20.11] returned an EC50 of 116 nM. Molecule `CN(C)C(=O)C1CN(c2c3c(nc4ccnn24)CCNCC3)C1` [Example 9, 1-(6,7,8,9-Tetrahydro-5H-1,4,7,10a-tetraaza-cyclohepta[f]inden-10-yl)-azetidine-3-carboxylic acid dimethylamide] showed an EC50 of 71 nM.

`COCCN(C)C(=O)C1CN(c2c3c(nc4ccnn24)CCNCC3)C1` [Example 31.3] came in with an EC50 of 885 nM.

Take `Cc1ccccc1OC1CN(c2c3c(nc4ccnn24)CCNCC3)C1` [Example 35.5]: the EC50 turned out to be 112 nM.

Molecule `CNC(=O)C1CN(c2c3c(nc4ccnn24)CCNCC3)C1` [Example 9.1] registered an EC50 of 818 nM. The molecule `O=C(C1CN(c2c3c(nc4ccnn24)CCNCC3)C1)N1CCC(c2ccccc2F)CC1` [Example 31.113] showed an EC50 of 27 nM.

In the case of `O=C(NCC(F)(F)F)C1CN(c2c3c(nc4ccnn24)CCNCC3)C1` [Example 37.94], the response was half-maximal at 228 nM (EC50).

`O=C(C1CN(c2c3c(nc4ccnn24)CCNCC3)C1)N1CCN2CCCC2C1` (stereo not shown) [Example 37.9] yielded an EC50 of 3 nM. With `CC1CN(C(=O)C2CN(c3c4c(nc5ccnn35)CCNCC4)C2)CC(C)N1C` (stereo not shown) [Example 37.4], a half-maximal response (EC50) required 4 nM.

Molecule `CN1CCc2nc3ccnn3c(N3CC(C(=O)N4CCN(C)CC4)C3)c2CC1` [Example 36.51] displayed an EC50 of 81 nM.

The values are drawn from patent US20120165304A1, “6,7,8,9-Tetrahydro-5H-1,4,7,10a-tetraaza-cyclohept[f]indene derivatives, pharmaceutical compositions containing these compounds, their use and processes for preparing them” (BOEHRINGER INGELHEIM INTERNATIONAL GMBH, priority 2008, published 2012).
